Results taken from patent US20240424113A1, “CONJUGATES COMPRISING ANTIFUNGALS AND HEAT SHOCK PROTEIN 90 (HSP90) INHIBITORS AND METHODS OF USE THEREOF” (Bright Angel Therapeutics Inc., priority 2021, published 2024).
Converted amounts (≈) assume the structure as drawn.

Tests used:
[1] = system: CaCl2; test: Antifungal sensitivity testing (broth microdilution MIC); type: cell-based; settings: 96-well broth microdilution
Description: Antifungal Sensitivity Testing. Minimum inhibitory concentrations (MICs) were determined in flat bottom, 96-well plate format using a modified broth microdilution protocol as previously described (Singh et al., PLoS Pathog. 5, e1000532 (2009); LaFayette et al., PLoS Pathog. 6, 79-80 (2010)). Compounds were formulated in dimethyl sulfoxide (DMSO, Sigma-Aldrich Co.); fluconazole was dissolved in sterile ddH2O. Each compound was tested in duplicate in at least two independent experiments. To test for fungicidal activity, cultures from MIC plates were spotted on YPD agar plates using a spotter (Frogger, V&P Scientific, Inc.). Plates were photographed after 24 h of incubation at 30° C.

[2] = system: HepG2 cells; test: Mammalian cell toxicity (Cell Titer-Glo); type: cell-based
Description: Mammalian Cell Toxicity. HepG2 cells were seeded overnight at 500 cells/well in 384-well plate, then incubated with compounds (10-point concentration titration) for 48 h. Cell Titer-Glo® reagent ([…]) was added to each well and after 10-minute incubation at room temperature the luminescent signal was measured using an Envision plate reader (Perkin Elmer).

[3] = molecular target: Hsp90 Nuclear Binding Domain (NBD) (Candida albicans (strain SC5314 / ATCC MYA-2876) (Yeast), UniProt P46598); test: Surface Plasmon Resonance (SPR) binding, C. albicans Hsp90 NBD; settings: biotinylated Hsp90 NBD on streptavidin chip, 25° C., 1:1 binding model
Chain of Hsp90 Nuclear Binding Domain (NBD) (Candida albicans (strain SC5314 / ATCC MYA-2876) (Yeast), UniProt P46598) (P46598 1-218 limits assumed): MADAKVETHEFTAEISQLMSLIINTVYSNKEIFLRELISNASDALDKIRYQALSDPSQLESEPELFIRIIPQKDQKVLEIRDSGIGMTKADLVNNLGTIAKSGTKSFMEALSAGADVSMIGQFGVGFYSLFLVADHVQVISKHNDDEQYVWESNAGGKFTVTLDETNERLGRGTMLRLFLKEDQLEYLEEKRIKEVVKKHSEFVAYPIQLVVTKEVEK
Description: (§1) Surface Plasmon Resonance (SPR) Experiments. SPR experiments were performed on a Biacore S200 instrument at 25° C. Biotinylated Hsp90 Nuclear Binding Domain (NBD) was diluted to 40 μg/mL and immobilized on a streptavidin chip (Sensor Chip SA, GE Healthcare) at a density of 2000-2500 response units (RU) on the biosensor surface.
(§2) Recombinant Hsp90 NBDs were expressed and purified as previously described (Whitesell et al., Nat Commun 10, 402 (2019)) with the following modification; Hsp90 NBD expression constructs were modified to encode a C-terminal AviTag for site-specific on-column biotinylation with a BirA biotin-ligase kit (Avidity LLC; BirA-500). Stock protein solutions in 50% glycerol were stored at −20° C. until dilution into relevant buffers. Binding experiments were done in HBS-P (0.01 M HEPES, pH 7.4, 0.15 M NaCl, 0.005% v/v surfactant P20, GE Healthcare) with 2% DMSO at flow rate of 40 μL/min. Test compounds (dilution series) were injected with a 60 s association time and 600 s dissociation time. Resulting sensorgrams were analyzed with a fit to a 1:1 binding model, using BIA evaluation software.

[4] = molecular target: Hsp90 Nuclear Binding Domain (NBD) (Aspergillus fumigatus, UniProt P40292); test: Surface Plasmon Resonance (SPR) binding, A. fumigatus Hsp90 NBD; settings: biotinylated Hsp90 NBD on streptavidin chip, 25° C., 1:1 binding model; NB undefined
Chain of Hsp90 Nuclear Binding Domain (NBD) (Aspergillus fumigatus, UniProt P40292) (P40292 whole entry, looked up, the tested form may be a part): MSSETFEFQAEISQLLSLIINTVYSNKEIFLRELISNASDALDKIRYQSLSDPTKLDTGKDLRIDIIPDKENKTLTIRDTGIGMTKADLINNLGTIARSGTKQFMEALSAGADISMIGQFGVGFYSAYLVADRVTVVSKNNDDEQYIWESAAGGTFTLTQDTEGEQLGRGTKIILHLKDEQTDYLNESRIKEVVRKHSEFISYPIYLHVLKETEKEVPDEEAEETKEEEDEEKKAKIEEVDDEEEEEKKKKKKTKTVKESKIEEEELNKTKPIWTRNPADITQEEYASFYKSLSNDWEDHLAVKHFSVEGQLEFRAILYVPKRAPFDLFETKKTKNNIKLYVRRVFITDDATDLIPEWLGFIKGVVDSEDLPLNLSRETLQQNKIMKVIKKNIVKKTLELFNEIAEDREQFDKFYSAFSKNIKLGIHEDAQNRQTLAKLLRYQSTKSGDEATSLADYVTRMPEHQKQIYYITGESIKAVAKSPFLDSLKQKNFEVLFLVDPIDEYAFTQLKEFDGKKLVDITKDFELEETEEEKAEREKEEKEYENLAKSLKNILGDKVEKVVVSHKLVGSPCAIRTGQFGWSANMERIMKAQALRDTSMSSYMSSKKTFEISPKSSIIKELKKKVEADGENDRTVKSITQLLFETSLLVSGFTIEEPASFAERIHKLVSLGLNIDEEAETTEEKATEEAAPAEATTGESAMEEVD
Description: as §1, §2

| SMILES | MIC50 ([1]; Table 4) [µM] | MIC50 ([1]; Table 6) [µM] | HepG2 MIC50 ([2]; Table 5, 48 h incubation) [µM] | HepG2 MIC50 ([2]; Table 6, 48 h incubation) [µM] | Kd [3] [nM] | Kd [4] [nM] |
| --- | --- | --- | --- | --- | --- | --- |
| Nc1nc2sc(C(=O)NC3CCN(CC(O)(Cn4cncn4)c4ccc(F)cc4F)CC3)cc2n(-c2ccc3c(c2)N(c2ccccc2)CCO3)c1=O (centres unmarked) [Compound I-4, 3-amino-N-(1-(2-(2,4-difluorophenyl)-2-hydroxy-3-(1H-1,2,4-triazol-1-yl)propyl)piperidin-4-yl)-2-oxo-1-(4-phenyl-3,4-dihydro-2H-benzo[b][1,4]oxazin-6-yl)-1,2-dihydrothieno[2,3-b]pyrazine-6-carboxamide] | 0.75 (≈ 0.555 µg/mL) | 0.75 (≈ 0.555 µg/mL) | >10 | >10 | 28 | 113 |
| Nc1nc2sc(C(=O)N[C@@H]3CCN(C[C@@](O)(Cn4cncn4)c4ccc(F)cc4F)C3)cc2n(-c2ccc3c(c2)N(c2ccccc2)CCO3)c1=O [Compound I-11, 3-amino-N-((R)-1-((R)-2-(2,4-difluorophenyl)-2-hydroxy-3-(1H-1,2,4-triazol-1-yl)propyl)pyrrolidin-3-yl)-2-oxo-1-(4-phenyl-3,4-dihydro-2H-benzo[b][1,4]oxazin-6-yl)-1,2-dihydrothieno[2,3-b]pyrazine-6-carboxamide] | 2.5 (≈ 1.81 µg/mL) | 2.5 (≈ 1.81 µg/mL) | – | 2.4 | 0.8 | 24.8 |
| Cc1ccc(-n2c(=O)c(N)nc3sc(C(=O)NC4CCN(CC(O)(Cn5cncn5)c5ccc(F)cc5F)CC4)cc32)cc1Oc1ccccc1 (centres unmarked) [Compound I-12, 3-amino-N-(1-(2-(2,4-difluorophenyl)-2-hydroxy-3-(1H-1,2,4-triazol-1-yl)propyl)piperidin-4-yl)-1-(4-methyl-3-phenoxyphenyl)-2-oxo-1,2-dihydrothieno[2,3-b]pyrazine-6-carboxamide] | 0.18 (≈ 0.128 µg/mL) | 0.18 (≈ 0.128 µg/mL) | >10 | >10 | 146 | 431 |
| Nc1nc2scc(C(=O)NC3CCN(CC(O)(Cn4cncn4)c4ccc(F)cc4F)CC3)c2n(-c2ccc3c(c2)N(c2ccccc2)CCO3)c1=O (centres unmarked) [Compound I-18, 3-amino-N-(1-(2-(2,4-difluorophenyl)-2-hydroxy-3-(1H-1,2,4-triazol-1-yl)propyl)piperidin-4-yl)-2-oxo-1-(4-phenyl-3,4-dihydro-2H-benzo[b][1,4]oxazin-6-yl)-1,2-dihydrothieno[2,3-b]pyrazine-7-carboxamide] | 20 (≈ 14.8 µg/mL) | 20 (≈ 14.8 µg/mL) | – | >50 | 459 | 741 |
| Nc1nc2sc(C(=O)NC3CCN(C[C@](O)(Cn4cncn4)c4ccc(F)cc4F)CC3)cc2n(-c2ccc3c(c2)N(c2ccccc2)CCC3)c1=O [Compound I-21, (S)-3-amino-N-(1-(2-(2,4-difluorophenyl)-2-hydroxy-3-(1H-1,2,4-triazol-1-yl)propyl)piperidin-4-yl)-2-oxo-1-(1-phenyl-1,2,3,4-tetrahydroquinolin-7-yl)-1,2-dihydrothieno[2,3-b]pyrazine-6-carboxamide] | 0.085 (≈ 0.0627 µg/mL) | 0.09 (≈ 0.0664 µg/mL) | >50 | >50 | 6.7 | 37.3 |
| Nc1nc2sc(CN[C@H]3[C@@H]4CN(C[C@](O)(Cn5cncn5)c5ccc(F)cc5F)C[C@@H]43)cc2n(-c2ccc3c(c2)N(c2ccccc2)CCO3)c1=O [Compound I-125, 3-amino-6-((((1R,5S,6R)-3-((S)-2-(2,4-difluorophenyl)-2-hydroxy-3-(1H-1,2,4-triazol-1-yl)propyl)-3-azabicyclo[3.1.0]hexan-6-yl)amino)methyl)-1-(4-phenyl-3,4-dihydro-2H-benzo[b][1,4]oxazin-6-yl)thieno[2,3-b]pyrazin-2(1H)-one] | 5.75 (≈ 4.16 µg/mL) | – | – | – | 575 | 886 |
| Nc1nc2sc(CN[C@H]3[C@@H]4CN(C[C@@](O)(Cn5cncn5)c5ccc(F)cc5F)C[C@@H]43)cc2n(-c2ccc3c(c2)N(c2ccccc2)CCO3)c1=O [Compound I-127, 3-amino-6-((((1R,5S,6S)-3-((R)-2-(2,4-difluorophenyl)-2-hydroxy-3-(1H-1,2,4-triazol-1-yl)propyl)-3-azabicyclo[3.1.0]hexan-6-yl)amino)methyl)-1-(4-phenyl-3,4-dihydro-2H-benzo[b][1,4]oxazin-6-yl)thieno[2,3-b]pyrazin-2(1H)-one] | 6.25 (≈ 4.52 µg/mL) | – | – | – | 699 | 1190 |
| Nc1nc2sc(CNC3CCN(C(=O)C[C@@](O)(Cn4cncn4)c4ccc(F)cc4F)CC3)cc2n(-c2ccc3c(c2)N(c2ccccc2)CCO3)c1=O [Compound I-129, (S)-3-amino-6-(((1-(3-(2,4-difluorophenyl)-3-hydroxy-4-(1H-1,2,4-triazol-1-yl)butanoyl)piperidin-4-yl)amino)methyl)-1-(4-phenyl-3,4-dihydro-2H-benzo[b][1,4]oxazin-6-yl)thieno[2,3-b]pyrazin-2(1H)-one] | 7 (≈ 5.28 µg/mL) | – | – | – | 546 | 698 |
| Nc1nc2sc(CNCC3CCN(C[C@](O)(Cn4cncn4)c4ccc(F)cc4F)CC3)cc2n(-c2ccc3c(c2)N(c2ccccc2)CCO3)c1=O [Compound I-131, (S)-3-amino-6-((((1-(2-(2,4-difluorophenyl)-2-hydroxy-3-(1H-1,2,4-triazol-1-yl)propyl)piperidin-4-yl)methyl)amino)methyl)-1-(4-phenyl-3,4-dihydro-2H-benzo[b][1,4]oxazin-6-yl)thieno[2,3-b]pyrazin-2(1H)-one] | 1.25 (≈ 0.925 µg/mL) | 1.25 (≈ 0.925 µg/mL) | 9 | 9 | – | – |
| Nc1nc2sc(CNC3CCN(CC(O)(Cn4cncn4)c4ccc(F)cc4F)CC3(F)F)cc2n(-c2ccc3c(c2)N(c2ccccc2)CCO3)c1=O (centres unmarked) [Compound I-137, 3-amino-6-(((1-(2-(2,4-difluorophenyl)-2-hydroxy-3-(1H-1,2,4-triazol-1-yl)propyl)-3,3-difluoropiperidin-4-yl)amino)methyl)-1-(4-phenyl-3,4-dihydro-2H-benzo[b][1,4]oxazin-6-yl)thieno[2,3-b]pyrazin-2(1H)-one] | 0.78 (≈ 0.594 µg/mL) | – | – | – | 54.1 | 127 |
| Nc1nc2sc(CNC(=O)C3CCN(CC(O)(Cn4cncn4)c4ccc(F)cc4F)CC3)cc2n(-c2ccc3c(c2)N(c2ccccc2)CCO3)c1=O (centres unmarked) [Compound I-140, N-((3-amino-2-oxo-1-(4-phenyl-3,4-dihydro-2H-benzo[b][1,4]oxazin-6-yl)-1,2-dihydrothieno[2,3-b]pyrazin-6-yl)methyl)-1-(2-(2,4-difluorophenyl)-2-hydroxy-3-(1H-1,2,4-triazol-1-yl)propyl)piperidine-4-carboxamide] | 6.3 (≈ 4.75 µg/mL) | – | – | – | 746 | 434 |
| Nc1nc2sc(CNC3CCN(CC(O)(Cn4cncn4)c4ccc(F)cc4F)C(=O)C3)cc2n(-c2ccc3c(c2)N(c2ccccc2)CCO3)c1=O (centres unmarked) [Compound I-141, 3-amino-6-(((1-(2-(2,4-difluorophenyl)-2-hydroxy-3-(1H-1,2,4-triazol-1-yl)propyl)-2-oxopiperidin-4-yl)amino)methyl)-1-(4-phenyl-3,4-dihydro-2H-benzo[b][1,4]oxazin-6-yl)thieno[2,3-b]pyrazin-2(1H)-one] | 6.3 (≈ 4.66 µg/mL) | – | – | – | 342 | 620 |
| Nc1nc2sc(C(=O)NC3CCN(CC(O)(Cn4cncn4)c4ccccn4)CC3)cc2n(-c2ccc3c(c2)N(c2ccccc2)CCO3)c1=O (centres unmarked) [Compound I-142, 3-amino-N-(1-(2-hydroxy-2-(pyridin-2-yl)-3-(1H-1,2,4-triazol-1-yl)propyl)piperidin-4-yl)-2-oxo-1-(4-phenyl-3,4-dihydro-2H-benzo[b][1,4]oxazin-6-yl)-1,2-dihydrothieno[2,3-b]pyrazine-6-carboxamide] | 25 (≈ 17.6 µg/mL) | – | – | – | 2.4 | 34.1 |
| Nc1nc2sc(CNC3CCN(CC(O)(Cn4cncn4)c4ccccc4)CC3)cc2n(-c2ccc3c(c2)N(c2ccccc2)CCO3)c1=O (centres unmarked) [Compound I-145, 3-amino-6-(((1-(2-hydroxy-2-phenyl-3-(1H-1,2,4-triazol-1-yl)propyl)piperidin-4-yl)amino)methyl)-1-(4-phenyl-3,4-dihydro-2H-benzo[b][1,4]oxazin-6-yl)thieno[2,3-b]pyrazin-2(1H)-one] | 12.5 (≈ 8.62 µg/mL) | – | – | – | 114 | 161 |
